This passage reports T/C results from PubChem BioAssay AID328 (DTP/NCI, 2004).

The assay concerns BDF1 mice, P388 leukemia ip, median survival T/C. Nature of the assay: NCI In Vivo Anticancer Drug Screen. Data for tumor model P388 Leukemia (intraperitoneal) in B6D2F1 (BDF1) mice. As to conditions: endpoint: median survival time, higher = longer survival. An outline of the steps: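 Read-out is survival of treated animals expressed relative to the vehicle group, as a T/C ratio.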

[1] abbreviates: dose: 50.0 mg/kg/injection, schedule: Q01DX009 (ip), vehicle: saline with Tween-80.
[2] abbreviates: dose: 100.0 mg/kg/injection, schedule: Q01DX009 (ip), vehicle: Klucel (hydroxypropylcellulose) (HPC).
Setting [3] is: dose: 200.0 mg/kg/injection, schedule: Q01DX009 (ip), vehicle: Klucel (hydroxypropylcellulose) (HPC).
Where [4] appears, read: dose: 50.0 mg/kg/injection, schedule: Q01DX009 (ip), vehicle: Klucel (hydroxypropylcellulose) (HPC).
The mark [5] stands for this setting: dose: 100.0 mg/kg/injection, schedule: Q01DX009 (ip), vehicle: saline with Tween-80.
Where [6] appears, read: dose: 100.0 mg/kg/injection, schedule: Q04DX003 (ip), vehicle: saline with Tween-80.
[7] abbreviates: dose: 200.0 mg/kg/injection, schedule: Q01DX009 (ip), vehicle: saline with Tween-80.
Where [8] appears, read: dose: 200.0 mg/kg/injection, schedule: Q04DX003 (ip), vehicle: saline with Tween-80.
[9] abbreviates: dose: 400.0 mg/kg/injection, schedule: Q01DX009 (ip), vehicle: saline with Tween-80.

Inconclusive results and toxic doses are left out.

Take `Cc1cc(C)nc(NN)n1`: the T/C by setting is: (dose: 6.25 mg/kg/injection, schedule: Q01DX009 (ip), vehicle: saline with Tween-80) 98 % of control; (dose: 12.5 mg/kg/injection, schedule: Q01DX009 (ip), vehicle: saline with Tween-80) 96 % of control; (dose: 25.0 mg/kg/injection, schedule: Q01DX009 (ip), vehicle: saline with Tween-80) 101 % of control; under setting [1], 102 % of control.

As to `CC1OC(OCc2cc(O)c3c(c2)C(C2OC(CO)C(O)C(O)C2O)c2cccc(O)c2C3=O)C(O)C(O)C1O` (centres undefined), the T/C is, setting by setting: (dose: 50.0 mg/kg/injection, schedule: Q04DX003 (ip), vehicle: water) 105 % of control; (dose: 100.0 mg/kg/injection, schedule: Q04DX003 (ip), vehicle: water) 101 % of control; (dose: 200.0 mg/kg/injection, schedule: Q04DX003 (ip), vehicle: water) 90 % of control.

Regarding `CCOC(=O)c1ccc(Oc2ncc([N+](=O)[O-])s2)cc1`, the T/C was 90 % of control (dose: 1.85 mg/kg/injection, schedule: Q01DX009 (ip), vehicle: saline); 100 % of control (dose: 3.71 mg/kg/injection, schedule: Q01DX009 (ip), vehicle: saline); 90 % of control (dose: 7.42 mg/kg/injection, schedule: Q01DX009 (ip), vehicle: saline); 90 % of control (dose: 10.0 mg/kg/injection, schedule: Q01DX009 (ip), vehicle: saline with Tween-80); 86 % of control (dose: 16.0 mg/kg/injection, schedule: Q01DX009 (ip), vehicle: saline with Tween-80); 95 % of control (dose: 24.0 mg/kg/injection, schedule: Q01DX009 (ip), vehicle: saline with Tween-80).

Regarding `O=C(OCC#CC#CCOC(=O)c1cccc2ccccc12)c1cccc2ccccc12`, the T/C is 100 % of control under setting [2]; 95 % of control under setting [3]; 105 % of control (dose: 400.0 mg/kg/injection, schedule: Q01DX009 (ip), vehicle: Klucel (hydroxypropylcellulose) (HPC)).

For `C=C1C(=O)O[C@@H]2[C@H]3O[C@]3(C)CCC=C(C)CC[C@@H]12`, the T/C (dose: 6.25 mg/kg/injection, schedule: Q01DX009 (ip), vehicle: alcohol) was 90 % of control; the T/C (dose: 12.5 mg/kg/injection, schedule: Q01DX009 (ip), vehicle: alcohol) is 122 % of control; the T/C (dose: 25.0 mg/kg/injection, schedule: Q01DX009 (ip), vehicle: alcohol) is 122 % of control; the T/C (dose: 50.0 mg/kg/injection, schedule: Q01DX009 (ip), vehicle: alcohol) was 113 % of control.

`COc1ccc2c3c(ccc2c1)C(=O)C(C)(C#N)CC3` (centres undefined): the T/C reads like this: under setting [4], 104 % of control; under setting [2], 95 % of control; (dose: 100.0 mg/kg/injection, schedule: Q04DX003 (ip), vehicle: other) 95 % of control; under setting [3], 100 % of control; (dose: 200.0 mg/kg/injection, schedule: Q04DX003 (ip), vehicle: other) 100 % of control; (dose: 400.0 mg/kg/injection, schedule: Q04DX003 (ip), vehicle: other) 95 % of control.

Turning to `N#Cc1c[nH]n2c(=S)ncnc12`, the T/C runs as follows: under setting [1], 107 % of control; under setting [5], 90 % of control; under setting [6], 104 % of control; under setting [7], 93 % of control; under setting [8], 109 % of control; (dose: 300.0 mg/kg/injection, schedule: Q01DX009 (ip), vehicle: saline with Tween-80) 99 % of control.

In the case of `CC1(O)CCC2C3CCC4CC(=O)CCC4(C)C3(F)C(O)CC21C` (centres undefined), the T/C is, setting by setting: (dose: 100.0 mg/kg/injection, schedule: Q01DX001 (ip), vehicle: saline) 100 % of control; (dose: 100.0 mg/kg/injection, schedule: Q01DX009 (ip), vehicle: saline) 90 % of control; (dose: 100.0 mg/kg/injection, schedule: Q04DX003 (ip), vehicle: saline) 104 % of control; (dose: 200.0 mg/kg/injection, schedule: Q01DX001 (ip), vehicle: saline) 86 % of control; (dose: 200.0 mg/kg/injection, schedule: Q01DX009 (ip), vehicle: saline) 109 % of control; (dose: 200.0 mg/kg/injection, schedule: Q04DX003 (ip), vehicle: saline) 104 % of control. Moreover, the T/C (dose: 400.0 mg/kg/injection, schedule: Q01DX001 (ip), vehicle: saline) was 95 % of control; the T/C (dose: 400.0 mg/kg/injection, schedule: Q01DX009 (ip), vehicle: saline) was 113 % of control; the T/C (dose: 400.0 mg/kg/injection, schedule: Q04DX003 (ip), vehicle: saline) is 104 % of control.

For the molecule `CC(=O)Nc1ccc(Cl)c(Cl)c1`, the T/C by setting is: (dose: 100.0 mg/kg/injection, schedule: Q04DX003 (ip), vehicle: saline sonified) 100 % of control; under setting [6], 90 % of control; (dose: 200.0 mg/kg/injection, schedule: Q04DX003 (ip), vehicle: saline sonified) 120 % of control; under setting [8], 100 % of control; (dose: 400.0 mg/kg/injection, schedule: Q04DX003 (ip), vehicle: saline sonified) 104 % of control.

Take `COc1cc(/C(C)=N\O)ccc1O`: the T/C was 100 % of control (dose: 100.0 mg/kg/injection, schedule: Q01DX001 (ip), vehicle: other); 100 % of control (dose: 200.0 mg/kg/injection, schedule: Q01DX001 (ip), vehicle: other); 100 % of control (dose: 400.0 mg/kg/injection, schedule: Q01DX001 (ip), vehicle: other).

Regarding `CSc1cccc(NC(=O)OCCOc2ccc(Br)cc2)c1`, the T/C is, setting by setting: (dose: 12.5 mg/kg/injection, schedule: Q01DX009 (ip), vehicle: Klucel (hydroxypropylcellulose) (HPC)) 109 % of control; (dose: 25.0 mg/kg/injection, schedule: Q01DX009 (ip), vehicle: Klucel (hydroxypropylcellulose) (HPC)) 105 % of control; under setting [4], 102 % of control.

On to `CCCCC(CC)CC1CCCCC1O` (centres undefined), for which the T/C under setting [2] is 87 % of control; the T/C (dose: 100.0 mg/kg/injection, schedule: Q04DX003 (ip), vehicle: Klucel (hydroxypropylcellulose) (HPC)) is 122 % of control; the T/C under setting [3] was 91 % of control; the T/C (dose: 200.0 mg/kg/injection, schedule: Q04DX003 (ip), vehicle: Klucel (hydroxypropylcellulose) (HPC)) was 109 % of control; the T/C (dose: 400.0 mg/kg/injection, schedule: Q04DX003 (ip), vehicle: Klucel (hydroxypropylcellulose) (HPC)) was 95 % of control.

With `CC(Oc1ccc2ccccc2c1I)C(=O)O` (centres undefined), the T/C is, setting by setting: (dose: 50.0 mg/kg/injection, schedule: Q01DX005 (ip), vehicle: saline with Tween-80) 91 % of control; (dose: 100.0 mg/kg/injection, schedule: Q01DX005 (ip), vehicle: saline with Tween-80) 113 % of control; (dose: 200.0 mg/kg/injection, schedule: Q01DX005 (ip), vehicle: saline with Tween-80) 106 % of control.

Regarding `COc1cccc(NC(=O)CCC(=O)O)c1`, the T/C is, setting by setting: under setting [5], 104 % of control; under setting [7], 100 % of control; under setting [9], 100 % of control.

Consider `CCCCCCCSc1ncnc2nc[nH]c12`, for which the T/C under setting [5] is 100 % of control; the T/C under setting [6] was 86 % of control; the T/C under setting [7] was 86 % of control; the T/C under setting [8] was 95 % of control; the T/C under setting [9] was 109 % of control; the T/C (dose: 400.0 mg/kg/injection, schedule: Q04DX003 (ip), vehicle: saline with Tween-80) is 100 % of control.

As for `O=C(O)c1c(Cl)c(Cl)c(Cl)c(Cl)c1C(=O)O.O=C(O)c1c(Cl)c(Cl)c(Cl)c(Cl)c1C(=O)O.[Pt]`, the T/C (dose: 25.0 mg/kg/injection, schedule: Q04DX003 (ip), vehicle: saline sonified) was 115 % of control and the T/C (dose: 50.0 mg/kg/injection, schedule: Q04DX003 (ip), vehicle: saline sonified) was 120 % of control.

Take `O=c1[nH]cc(N(CCCl)CCCl)c(=O)[nH]1`: the T/C (dose: 0.38 mg/kg/injection, schedule: Q01DX010 (ip), vehicle: saline) is 218 % of control; the T/C (dose: 0.75 mg/kg/injection, schedule: Q01DX010 (ip), vehicle: saline) was 300 % of control; the T/C (dose: 1.5 mg/kg/injection, schedule: Q01DX010 (ip), vehicle: saline) was 204 % of control.
